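A five-concentration, 48-hour dose response in 96-well plates underlies each endpoint, interpolated linearly between surrounding concentrations. GI50 = concentration required for 50% inhibition of growth. Definition used: TGI = concentration required for complete inhibition of growth.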
Assays:
Assay in all cases: DTP human tumour cell line panel, 48 h
786-0 renal = test system: 786-0 renal
A498 renal = test system: A498 renal
A549 NSCLC = test system: A549 NSCLC
ACHN renal = test system: ACHN renal
BT-549 breast = test system: BT-549 breast
CAKI-1 renal = test system: CAKI-1 renal
CCRF-CEM leukemia = test system: CCRF-CEM leukemia
COLO 205 colon = test system: COLO 205 colon
DU-145 prostate = test system: DU-145 prostate
EKVX NSCLC = test system: EKVX NSCLC
HCC-2998 colon = test system: HCC-2998 colon
HCT-116 colon = test system: HCT-116 colon
HL-60(TB) leukemia = test system: HL-60(TB) leukemia
HOP-62 NSCLC = test system: HOP-62 NSCLC
HOP-92 NSCLC = test system: HOP-92 NSCLC
HS 578T breast = test system: HS 578T breast
HT29 colon = test system: HT29 colon
IGROV1 ovarian = test system: IGROV1 ovarian
K-562 leukemia = test system: K-562 leukemia
LOX IMVI melanoma = test system: LOX IMVI melanoma
M14 melanoma = test system: M14 melanoma
MALME-3M melanoma = test system: MALME-3M melanoma
MCF7 breast = test system: MCF7 breast
MDA-MB-231 breast = test system: MDA-MB-231 breast
MDA-MB-435 = test system: MDA-MB-435
MOLT-4 leukemia = test system: MOLT-4 leukemia
NCI-H226 lung = test system: NCI-H226 lung
NCI-H23 lung = test system: NCI-H23 lung
NCI-H460 lung = test system: NCI-H460 lung
NCI-H522 lung = test system: NCI-H522 lung
NCI/ADR-RES ovarian = test system: NCI/ADR-RES ovarian
OVCAR-3 ovarian = test system: OVCAR-3 ovarian
OVCAR-4 ovarian = test system: OVCAR-4 ovarian
OVCAR-5 ovarian = test system: OVCAR-5 ovarian
OVCAR-8 ovarian = test system: OVCAR-8 ovarian
PC-3 prostate = test system: PC-3 prostate
RPMI-8226 leukemia = test system: RPMI-8226 leukemia
RXF 393 renal = test system: RXF 393 renal
SF-268 CNS = test system: SF-268 CNS
SF-295 CNS = test system: SF-295 CNS
SF-539 CNS = test system: SF-539 CNS
SK-MEL-2 melanoma = test system: SK-MEL-2 melanoma
SK-MEL-28 melanoma = test system: SK-MEL-28 melanoma
SK-MEL-5 melanoma = test system: SK-MEL-5 melanoma
SK-OV-3 ovarian = test system: SK-OV-3 ovarian
SN12C renal = test system: SN12C renal
SNB-19 CNS = test system: SNB-19 CNS
SNB-75 CNS = test system: SNB-75 CNS
SR leukemia = test system: SR leukemia
SW-620 colon = test system: SW-620 colon
T-47D breast = test system: T-47D breast
TK-10 renal = test system: TK-10 renal
U251 CNS = test system: U251 CNS
UACC-257 melanoma = test system: UACC-257 melanoma
UACC-62 melanoma = test system: UACC-62 melanoma
UO-31 renal = test system: UO-31 renal

Q: What does the source list for CN(C)CCS(=O)(=O)Nc1cc(-c2ccc3ncc(C#N)c(Nc4ccc(F)c(Cl)c4)c3c2)cnc1Cl?
A: GI50 (786-0 renal): 0.307 µM; TGI (786-0 renal): 3.61 µM; GI50 (A498 renal): 0.144 µM; TGI (A498 renal): 0.344 µM; GI50 (A549 NSCLC): 1.14 µM; TGI (A549 NSCLC): 4.79 µM; GI50 (ACHN renal): 0.546 µM; TGI (ACHN renal): > 100 µM; GI50 (BT-549 breast): 0.107 µM; TGI (BT-549 breast): 0.485 µM; GI50 (CAKI-1 renal): 0.0913 µM; TGI (CAKI-1 renal): 0.511 µM; GI50 (CCRF-CEM leukemia): 0.11 µM; TGI (CCRF-CEM leukemia): 8.46 µM; GI50 (COLO 205 colon): 0.188 µM; TGI (COLO 205 colon): 0.439 µM; GI50 (DU-145 prostate): 0.293 µM; TGI (DU-145 prostate): 2.11 µM; GI50 (EKVX NSCLC): 0.23 µM; TGI (EKVX NSCLC): 1.47 µM; GI50 (HCC-2998 colon): 0.198 µM; TGI (HCC-2998 colon): 0.393 µM; GI50 (HCT-116 colon): 0.214 µM; TGI (HCT-116 colon): 0.69 µM; GI50 (HL-60(TB) leukemia): 0.0708 µM; TGI (HL-60(TB) leukemia): 0.684 µM; GI50 (HOP-62 NSCLC): 0.248 µM; TGI (HOP-62 NSCLC): > 22.7 µM; GI50 (HOP-92 NSCLC): 0.0322 µM; TGI (HOP-92 NSCLC): 0.409 µM; GI50 (HS 578T breast): 0.127 µM; TGI (HS 578T breast): 1.03 µM; GI50 (HT29 colon): 0.388 µM; TGI (HT29 colon): > 25.9 µM; GI50 (IGROV1 ovarian): 0.0777 µM; TGI (IGROV1 ovarian): 0.287 µM; GI50 (K-562 leukemia): 0.229 µM; TGI (K-562 leukemia): > 50.5 µM; GI50 (LOX IMVI melanoma): 0.117 µM; TGI (LOX IMVI melanoma): 0.284 µM; GI50 (M14 melanoma): 0.255 µM; TGI (M14 melanoma): 1.27 µM; GI50 (MALME-3M melanoma): 0.0788 µM; TGI (MALME-3M melanoma): 0.469 µM; GI50 (MCF7 breast): 0.106 µM; TGI (MCF7 breast): 1.39 µM; GI50 (MDA-MB-231 breast): 0.185 µM; TGI (MDA-MB-231 breast): 0.629 µM; GI50 (MDA-MB-435): 0.374 µM; TGI (MDA-MB-435): 3 µM; GI50 (MOLT-4 leukemia): 0.12 µM; TGI (MOLT-4 leukemia): 0.547 µM; GI50 (NCI-H226 lung): 0.281 µM; TGI (NCI-H226 lung): 2.59 µM; GI50 (NCI-H23 lung): 0.159 µM; TGI (NCI-H23 lung): 0.469 µM; GI50 (NCI-H460 lung): 0.612 µM; TGI (NCI-H460 lung): 3.72 µM; GI50 (NCI-H522 lung): 0.202 µM; TGI (NCI-H522 lung): 0.883 µM; GI50 (NCI/ADR-RES ovarian): 2.11 µM; TGI (NCI/ADR-RES ovarian): > 29.3 µM; GI50 (OVCAR-3 ovarian): 0.13 µM; TGI (OVCAR-3 ovarian): 0.412 µM; GI50 (OVCAR-4 ovarian): 0.382 µM; TGI (OVCAR-4 ovarian): 10.3 µM; GI50 (OVCAR-5 ovarian): 0.303 µM; TGI (OVCAR-5 ovarian): 4.9 µM; GI50 (OVCAR-8 ovarian): 0.387 µM; TGI (OVCAR-8 ovarian): > 32.6 µM; GI50 (PC-3 prostate): 0.227 µM; TGI (PC-3 prostate): 1.72 µM; GI50 (RPMI-8226 leukemia): 0.223 µM; TGI (RPMI-8226 leukemia): 0.897 µM; GI50 (RXF 393 renal): 0.0953 µM; TGI (RXF 393 renal): 0.348 µM; GI50 (SF-268 CNS): 0.122 µM; TGI (SF-268 CNS): 0.692 µM; GI50 (SF-295 CNS): 0.366 µM; TGI (SF-295 CNS): 2.4 µM; GI50 (SF-539 CNS): 0.212 µM; TGI (SF-539 CNS): 1.17 µM; GI50 (SK-MEL-2 melanoma): 0.173 µM; TGI (SK-MEL-2 melanoma): 0.532 µM; GI50 (SK-MEL-28 melanoma): 0.176 µM; TGI (SK-MEL-28 melanoma): 1.28 µM; GI50 (SK-MEL-5 melanoma): 0.118 µM; TGI (SK-MEL-5 melanoma): 0.244 µM; GI50 (SK-OV-3 ovarian): 0.299 µM; TGI (SK-OV-3 ovarian): 1.79 µM; GI50 (SN12C renal): 0.232 µM; TGI (SN12C renal): > 100 µM; GI50 (SNB-19 CNS): 0.248 µM; TGI (SNB-19 CNS): 2.94 µM; GI50 (SNB-75 CNS): < 0.0152 µM; TGI (SNB-75 CNS): 0.562 µM; GI50 (SR leukemia): 0.282 µM; TGI (SR leukemia): > 100 µM; GI50 (SW-620 colon): 0.263 µM; TGI (SW-620 colon): 1.43 µM; GI50 (T-47D breast): 0.0732 µM; TGI (T-47D breast): 0.65 µM; GI50 (TK-10 renal): 0.155 µM; TGI (TK-10 renal): 0.762 µM; GI50 (U251 CNS): 0.15 µM; TGI (U251 CNS): 0.746 µM; GI50 (UACC-257 melanoma): 0.273 µM; TGI (UACC-257 melanoma): 3.51 µM; GI50 (UACC-62 melanoma): 0.169 µM; TGI (UACC-62 melanoma): 0.63 µM; GI50 (UO-31 renal): 0.188 µM; TGI (UO-31 renal): 1.29 µM

— PubChem BioAssay (NCI)
